Assay results from US6043386A, “Non-calcemic, antiproliferative, transcriptionally active 24-fluorinated hybrid analogs of 1α,-25-dihydroxy vitamin D3” (John Hopkins University, priority 1999, dated 2000).

Assays:
murine keratinocytes = assay: in vitro antiproliferative activity in murine keratinocytes (FIG. 1); assay type: cell-based; settings: for antiproliferative activities: 1α,3β vs. 1β,3α diastereomers; for antiproliferative activity relative to 1,25D3: even at physiologically relevant 7 nM concentrations
Protocol: Each of these new hybrid analogs (Structures 3 and 4 of Scheme I) is evaluated initially for in vitro antiproliferative activity in murine keratinocytes, using the protocol described in Posner et al., J. Med. Chem. 1992, 35, pp. 3280-3287. The procedure utilized is described as follows:
(§1) Murine B16 malignant melanoma cells are grown and propagated in RPMI medium supplemented with 10% fetal bovine serum, L-glutamine, penicillin, and streptomycin and incubated at 37° C. in 5% CO2. For proliferation studies, cells are washed with PBS, trypsinized, and suspended in 8 ml of supplemented RPMI medium. The cell density is then determined using a hemacytometer and cells are resuspended in RPMI at 10,000 cells/cm^3. One ml of cell suspension (10,000 cells) is added to each well of a Falcon 24 Well Flat Bottom Tissue Culture Plate (Becton-Dickinson, Lincoln Park, N.J.). Plates are incubated for 24 hours to allow for cell attachment. The medium is then removed and replaced with fresh RPMI medium containing either 0.4% solvent (isopropanol) or vitamin D analog at concentrations ranging from 1-1000 nM in triplicate. When control wells near confluence, cells are washed with PBS, trypsinized, and suspended in 10 ml of Isoton II Coulter Balanced EIectrolyte Solution in FISHERbrand Dilu-Vial cuvettes. Cell number is then determined for each well as an average of two readings on a ZM Coulter Counter. Results are expressed as the average cell number for each vitamin D analog treatment group divided by the intital cell number (N/N0). The average standard deviation of the N/N0 cell number measurements was 0.21 in FIG. 1 and 2.1 in FIG. 2.

[1] = system: Murine B16 malignant melanoma cells; assay: Antiproliferative assays using malignant melanoma cells (FIG. 2); assay type: cell-based; settings: even at 1 nM concentration
Protocol: Antiproliferative assays using malignant melanoma cells
as §1, with “The average standard deviation of the N/N0 cell number measurements was 0.21 in FIG. 1 and 2.1 in FIG. 2.” left out

vitamin D receptor = assay: in vitro vitamin D receptor-mediated transcriptional activity in ROS 17/2.8 cells (growth hormone reporter); assay type: cell-based; settings: 48 h, rat osteosarcoma ROS 17/2.8 cells, vitamin D responsive element of human osteocalcin gene, 2 days, read-out: ED50 (transcriptional potency)
Protocol: The procedure utilized is described as follows:
Transfections and transcriptional activity of the analogs.
Rat osteosarcoma ROS 17/2.8 cells are maintained in 50% Dulbecco's modified Eagle medium (DMEM) and 50% F12 nutrient mixture supplemented with 10% fetal bovine serum. Forty eight hours before transfections, the cells are plated in 35-mm dishes at a density of 10^5 /dish in DMEM and 10% fetal bovine serum. ROS 17/2.8 cells are transfected with 2 μg of plasmid containing the vitamin D responsive element from the human osteocalcin gene ([…]) attached to the thymidine kinase promoter/growth hormone fusion gene. […] Medium samples for measurements of reporter gene expression (growth hormone) are collected 2 days after transfection. Growth hormone is measured by a radioimmunoassay as described by the manufacturer (Nichols Institute, San Juan Capistrano, Calif.).

[2] = body weight gain in rats treated daily for one week; assay type: in vivo, rat; settings: 1 microgram per kg per os, seven consecutive days
Protocol: (§2) Male F344 rats (150 g) are housed individually in glass metabolism cages and received food and water ad libitum. After several days acclimation, rats receive 1 microgram per kg body weight of test compound per os for seven consecutive days in 150 microliters of propylene glycol/0.05M Na2 HPO4 (80:20). Urine samples, which are collected on ice, were centrifuged at 650×g for 10 min, adjusted to pH 6.0 as necessary, and assayed for calcium content spectrophotometrically at 575 nm using reagents and standards from Sigma Calcium Kit #587.

Male F344 rats = assay: Determination of urinary calcium levels / hypercalcemic effects in vivo (FIG. 3); set-up: species or system rat; settings: 1 microgram per kg per os, seven consecutive days
Protocol: Because of their high antiproliferative and transcriptional activities in vitro, fluorinated hybrid analogs, Structures 3b and 4b, are evaluated for hypercalcemic effects in vivo. The procedure utilized is described as follows:
Determination of urinary calcium levels.
as §2

Row | calcium excretion into the urine (Male F344 rats) | SMILES | antiproliferative activities (murine keratinocytes) | antiproliferative potency relative to 1,25D3 [1] | EC50 (vitamin D receptor) | antiproliferative activity relative to 1,25D3 (murine keratinocytes) | suppression of body weight gain [2]
1 |  | C=C1/C(=C\C=C2/CCC[C@]3(C)C([C@H](C)CCC(F)(F)C(C)(C)O)=CC[C@@H]23)C[C@@H](O)C[C@@H]1CO [Structure 3a] | much less potent |  |  |  | 
2 | no calcium elevation above control | C=C1/C(=C\C=C2/CCC[C@]3(C)C([C@H](C)CCC(F)(F)C(C)(C)O)=CC[C@@H]23)C[C@H](O)C[C@H]1CO [Structure 3b] | significant antiproliferative activities | more potent antiproliferative agents than 1,25D3 | 0.2 nM | at least equal to that of 1,25D3 | not observed
3 |  | C=C1/C(=C\C=C2/CCC[C@]3(C)C([C@H](C)CCC(F)(F)C(O)(CC)CC)=CC[C@@H]23)C[C@@H](O)C[C@@H]1CO [Structure 4a] | much less potent |  |  |  | 
4 | no calcium elevation above control | C=C1/C(=C\C=C2/CCC[C@]3(C)C([C@H](C)CCC(F)(F)C(O)(CC)CC)=CC[C@@H]23)C[C@H](O)C[C@H]1CO [Structure 4b] | significant antiproliferative activities | more potent antiproliferative agents than 1,25D3 | 0.05 nM | at least equal to that of 1,25D3 | not observed

Row | SMILES | calcium excretion into the urine (Male F344 rats) | antiproliferative activities (murine keratinocytes) | antiproliferative potency relative to 1,25D3 [1] | EC50 (vitamin D receptor) | antiproliferative activity relative to 1,25D3 (murine keratinocytes) | suppression of body weight gain [2]
5 | C=C1/C(=C\C=C2/CCC[C@]3(C)[C@@H]([C@H](C)CCCC(C)(C)O)CC[C@@H]23)C[C@@H](O)C[C@@H]1O [calcitriol, 1α,25-dihydroxy vitamin D3, reference compound] | marked excretion of calcium into the urine |  |  |  |  | suppression of body weight gain
